Values quoted from earlier work, collected in patent publication US20240041963A1, “A NUTRACEUTICALS FORMULATION WITH AN ENHANCED ORGANOLEPTIC PROPERTIES USED FOR SCALP AND HAIR CARE” (DiaBliss Consumer Products Pvt Ltd, priority 2020, published 2024).
Like-named read-outs stand apart in the source and are kept apart here.

What was measured:
[1] = tested on: Male Patients with Androgenetic Alopecia; details: 30 men, 5 mg oral; for Hair Density in 1 sq cm area: Day 0 182.5
[2] = tested on: Male Patients with Androgenetic Alopecia; details: 30 men, 5 mg oral; for Hair Diameter: Day 0 58.5
men with hair loss = details: according to the American Academy of Dermatology

Row | Structure (SMILES) | Hair Density Increase vs Day 0 ([1]; Week 12 (Day 84)) [%] | Hair Density in 1 sq cm area ([1]; Week 12 (Day 84)) | Hair Density Increase vs Day 0 ([1]; Week 24 (Day 168)) [%] | Hair Density in 1 sq cm area ([1]; Week 24 (Day 168)) | Hair Diameter Increase vs Day 0 ([2]; Week 12 (Day 84)) [%] | Hair Diameter ([2]; Week 12 (Day 84)) [µm] | Hair Diameter Increase vs Day 0 ([2]; Week 24 (Day 168)) [%] | Hair Diameter ([2]; Week 24 (Day 168)) [µm] | men in whom it slows hair loss (men with hair loss) | men in whom it stimulates regrowth (men with hair loss)
1 | Nc1cc(N2CCCCC2)nc(N)[n+]1[O-] [Oral Minoxidil, 2,4-diamino-6-piperidinopyrimidine 3-oxide] | 14.2 | 208.5 | 19.2 | 217.6 | 10.6 | 64.7 | 15.2 | 67.4 | – | –
2 | CC(C)(C)NC(=O)[C@H]1CC[C@H]2[C@@H]3CC[C@H]4NC(=O)C=C[C@]4(C)[C@H]3CC[C@]12C [Finasteride] | – | – | – | – | – | – | – | – | about 88% | about 66%
